What was measured:
[1] = tested on: human AML cells; test: Flow cytometry of CD34/CD38 and LRC marker proteins (DRD2, SLC2A2, FASLG, FUT3) in human AML cells from xenograft BM; type: in vivo, human AML cells in mice
Description: Immunophenotyping for human hematopoietic cell surface markers was carried out using the following antibodies: V450-conjugated anti-CD45 (1:100; 2D1), APC-conjugated anti-CD33 (1:300; WM-33), PE-conjugated anti-CD34 (1:200; 581), FITC- or PE-conjugated anti-CD38 (1:100 or 1:500; HB7), FITC-conjugated anti-CD19 (1:100; HIB19), and APC-conjugated anti-CD3 (1:100; UCHT1; all from BD). In order to evaluate candidates from the LRC gene signature at the protein level, gene targets were identified with available commercial antibodies that had been validated for flow cytometry. Directly conjugated antibodies were used to detect human SLC2A2 (Alexa fluor 488-conjugated; 1:100; 199017; Novus Biologicals) and FASLG (FITC-conjugated; 1:100; SB93A; Thermo Fisher). Additionally, mouse anti-human primary antibodies that recognize human DRD2 (1:100; B-10; Santa Cruz) or FUT3 (1:100, F3, Thermo Fisher) were used, followed by incubation with an Alexa fluor 647- or 555-conjugated donkey anti-mouse secondary antibody ([…]; Thermo Fisher). In these cases of indirect staining, cells were first blocked with donkey serum (Jackson ImmunoResearch Laboratories) plus human FC block (eBioscience). […] When appropriate, fluorescence minus one and secondary antibody controls were used to optimize gating strategies for target cell populations. […]

[2] = Treatment-related mortality on AraC dose intensification in AML-xenografted mice; type: in vivo, mouse; conditions: AraC 100 mg/kg, 5 consecutive days
Description: This more aggressive regime produced unacceptable treatment-related mortality rates of 60%, which was not balanced by any therapeutic benefit in the few mice that survived.

[3] = tested on: human AML progenitors; test: CFU (methylcellulose) progenitor assay of human AML cells purified from treated xenograft BM
[4] = tested on: healthy human hematopoietic cells (CD45+); test: Healthy human hematopoietic chimerism and growth rate in xenografted mice; conditions: healthy human grafts in mice
[5] = tested on: human AML leukemia initiating cells (LSCs); test: Serial transplantation (limiting dilution) leukemia-initiating cell / LSC assay in secondary recipient mice; type: in vivo, human AML cells in NOD/SCID or NSG mice
Description: The threshold for engraftment detection was set at ≥0.1% human chimerism.

[6] = tested on: human AML cells (CD45+CD33+); test: Leukemic chimerism and growth rate in BM of AML-xenografted mice (FACS, serial BM aspirates); conditions: for Leukemic chimerism levels following DRD2 antagonist therapy: mean ± SEM

Nc1ccn([C@@H]2O[C@H](CO)[C@@H](O)[C@@H]2O)c(=O)n1 [AraC, Cytarabine]
frequencies of primitive CD34+ and CD34+CD38− cells within residual AML populations ([1]; AraC 5 consecutive days, xenograft BM 24-72 hr after final dose): strongly reduced
treatment-related mortality rate [2]: 60%
functional progenitors in residual leukemic populations (CFU) ([3]; AML xenografts, 48 hr after AraC withdrawal): depleted
re-growth rates of healthy human hematopoiesis after AraC cytoreduction [4]: rates matching those of vehicle-treated controls
functional LSCs (serial LIC transplantation) ([5]; AML xenografts, 48 hr after final AraC dose): suppressed
#Engrafted mice ([5]; AML#2, +AraC, cell dose 1 × 10^6, cells transplanted 48 hr after final AraC dose): 0/4
#Engrafted mice ([5]; AML#2, +AraC, cell dose 2 × 10^5, cells transplanted 48 hr after final AraC dose): 0/4
#Engrafted mice ([5]; AML#3, +AraC, cell dose 2 × 10^5, cells transplanted 48 hr after final AraC dose): 1/4
#Engrafted mice ([5]; AML#3, +AraC, cell dose 3 × 10^4, cells transplanted 48 hr after final AraC dose): 0/3
recipient mice with persisting residual disease ([6]; AML patient #13 xenografts, AraC alone, 9 days after final AraC dose): 50%
leukemic growth after AraC vs vehicle-treated controls ([6]; AML xenografts, kinetic modeling of serial BM aspirates): accelerated leukemic growth

CSc1ccc2c(c1)N(CCC1CCCCN1C)c1ccccc1S2 (stereo not shown) [DRD2 antagonist, thioridazine]
DRD2 protein expression in human leukemic cells from xenograft BM ([1]; DRD2 antagonist with AraC, LRC stage): loss of DRD2 protein expression
effect on progenitors of regenerating LRCs (CFU) ([3]; DRD2 antagonist in combination with AraC, 9 days after last AraC dose): profound effects
effect on AML progenitors arising from therapy-naive LSCs (CFU) ([3]; DRD2 antagonist single agent, 21-day regimen, AML xenografts): moderately affected
LIC content of therapy-naïve AML ([5]; DRD2 antagonist single agent, AML #5, serial transplantation): did not impact
LIC activity of AraC-exposed LRCs ([5]; DRD2 antagonist together with AraC, AML #5, serial transplantation 9 days post-AraC): complete loss of LIC activity
disease regeneration potential (secondary LIC assays and progenitor assays) ([5]; DRD2 antagonist with AraC, three additional AML patient samples): reproducibly blocked
time to overt relapse ([6]; AML #3 xenografts, AraC plus DRD2 antagonist vs AraC alone, relapse set at 20% leukemic chimerism, estimated from growth rates): nearly doubled
Leukemic chimerism levels following DRD2 antagonist therapy ([6]; AML #5, LRCs (in combination with AraC)): 1.4 ± 0.3
Leukemic chimerism levels following DRD2 antagonist therapy ([6]; AML #5, Therapy-naive (single agent, no AraC)): 12.4 ± 2.2
Leukemic chimerism levels following DRD2 antagonist therapy ([6]; AML #10, LRCs (in combination with AraC)): 16.9 ± 8.7
Leukemic chimerism levels following DRD2 antagonist therapy ([6]; AML #11, LRCs (in combination with AraC)): 1.4 ± 1.4
leukemic growth rates after AraC ([6]; AML Patient #3 xenografts, DRD2 antagonist plus AraC vs AraC alone): successfully disrupted
recipients achieving disease-free status ([6]; AML patient #13 xenografts, DRD2 antagonist added to AraC): 100%
overall cytoreductive activity of AraC (leukemic chimerism) ([6]; in vivo delivery of DRD2 antagonist with AraC): did not improve
